# Data as given in patent publication US5593678A, “Protection of teleost fish” (University of Georgia Research Foundation, priority 1994, dated 1997).
# Read-outs that look alike come from different tables or passages of the source.
# How the values were obtained:
# [1] = tested on: NCC (lysis of IM-9 target cells); conditions: for effect of removal of inhibitor on NCC activation (words): 90 minutes treatment, washed, E:T 40:1; for enhancement of destruction of IM-9 target cells (fold): over control, lower E:T ratios
# Protocol: FIG. 4. Individual and combined effects of phosphatase inhibitors on NCC cytotoxicity, NCC (7×10^5 cells) were incubated with either media (.diamond.), vanadate (Δ) (5 mM). NaF (.smallcircle.) (20 mM), or both vanadate and NaF (.quadrature.) for the indicated time periods before addition to labeled IM-9 target cells.
# FIG. 5. Effects of removal of Na3 VO4 on NCC activation. NCC were harvested, incubated for three hours, washed, counted and added to duplicate tubes containing either media alone or media containing 2.5, 5 and 10 mM vanadate. Following a 90 minutes incubation time, the cells were either washed and resuspended in media (closed circles) or added directly (open circles) to wells containing ^51 chromium labeled IM-9 target cells (E:T ratio 40:1).
# FIG. 6. Effects of removal of NaF on NCC activation. NCC were harvested, incubated for three hours in media, washed, counted and added to duplicate tubes containing media alone or in the presence of 5, 10 and 20 mM NaF. Following a 90 minutes treatment time, NCC were either washed (closed circles) or added directly (open circles) to wells containing labeled IM-9 target cells (E:t ratio 40:1).
# FIG. 7. Effects of Na3 VO4 on NCC with different levels of cytotoxicity. NCC were harvested from anterior kidneys of fish from three different sources. The cells were incubated in media for three hours, washed, counted and added to test tubes containing either media alone or media with 2.5, 5 and 10 mM vanadate. Following a two hours incubation time, the effectors were added to wells containing labeled IM-9 cells at a 40:1 E:T ratio.
# FIG. 8. Effects of NaF on NCC with different levels of cytotoxicity. NCC were harvested from anterior kidneys of fish from three different sources. The cells were incubated in media for three hours, washed, counted and added to media or media with 5, 10 and 20 mM NaF. Following a two-hour incubation, NCC were added to wells containing ^51 chromium labeled IM-9 target cells for a final E:T ratio of 40:1.
# (§1) A ^51 Cr release assay was used to determine cytotoxicity. Target cells at 1-2×10^6 cells/ml were labeled with 100 μCi of sodium chromate (Amersham, Arlington Heights, Ill.). NCC effector cells were treated as previously described [Evans et al. (1988) supra], centrifuged (500 g), and resuspended in media and added at different E:T ratios to the labeled target cells in round-bottomed 96-well microtiter plates. This mixture was incubated (25° C.) for 4-6 hours and 100 μl of each supernatant was removed to determine radioactivity (Beckman Biogamma II Counter; Beckman Instruments, Irvine, Calif.). The results are expressed as either percentage specific release (SR)=[(test release--spontaneous release)/(total release--spontaneous release)]×100; percent inhibition=[(percentage control SR--percentage test SR)/percentage control SR]×100; and percentage increase=(percentage test SR--percentage control SR)/percentage control SR.
# NCC were obtained as previously described [Graves et al. (1984) supra]; Evans et al. (1984) supra]. […] NCC were then washed and resuspended at 20×10^6 cells/ml, and 35 μl aliquots were added to test tubes containing 315 μl media only (media control) or media containing the indicated treatments. After 2 hr incubation, the cells were mixed with ^51 Cr-labeled IM-9 target cells and incubated for 4-6 hours ([…]). Supernatants were harvested and cytotoxicity levels were calculated as previously described.
# Membrane phosphorylation is maintained through a delicate equilibrium between cellular kinase and phosphatase activities.
# In further studies, NCC were treated with different concentrations of protein phosphatase inhibitors for two hours and labeled IM-9 target cells were added for a four-hour microcytotoxicity assay (Table 8).
# [2] = tested on: NCC from stressed fish (lysis of IM-9 target cells); conditions: 100:1, control 0.9
# Protocol: as §1
# A common observation in fish exposed to stress, e.g., toxicants, drastic temperature changes, handling, etc., is the temporary loss of NCC activity.
# [3] = tested on: NCC (lysis of IM-9 target cells); conditions: 0.05 mM (50 μM), immersion, 10, 24, 48 hours
# Protocol: FIG. 9. In vivo NCC responses to vanadate treatment. Catfish were acclimated in 10 gal tanks for 24 hours prior to treatment. Vanadate was added directly to the tanks and cytotoxicity assays of NCC from treated and control fish were conducted at 10, 24 and 48 hours post-treatment.
# Fish were treated by immersion in 10 gal (static flow) tanks containing the appropriate inhibitor concentrations in 15 liters of dechlorinated water (19°-20° C.). All fish were acclimated to tank conditions 24 hours prior to treatment. Each tank housed twenty fish (approximately 4-5 inches in length). At 24 hour intervals 50% of the water was changed.
# To determine the ability of vanadate to act in vivo to activate NCC responses, fish were treated by immersion with 0.050 mM vanadate and cytotoxicity was determined at 10, 24 and 48 hours post-treatment.
# Edwardsiella ictaluri [4] = tested on: Edwardsiella ictaluri
# Protocol: FIG. 11. Effects of treatment of catfish with vanadate prior to infection with E. ictaluri. In two different experiments (A and B), catfish were treated with vanadate (indicated concentrations) 48 hours prior to infection with Edwardsiella. Percent cumulative mortality for each treatment group is given. Numbers of fish were 12-15/group/experiment.
# Thus, catfish were treated (by immersion) with 0.05 mM vanadate for 48 hours prior to infection with Edwardsiella ictaluri.
# [5] = tested on: NCC in anterior kidney tissue; conditions: for % NCC in anterior kidney tissue / Total cells/ml: 50 μM
# Edwardsiella ictaluri [6] = conditions: approximately 10 μM to approximately 25 μM, 18-24 hours; FIG. 10; listed as sodium orthovanadate
# Na^+ /K^+ ATPase = conditions: cited from earlier work
# protein phosphatase = conditions: cited from earlier work
# [7] = tested on: human prostate gland phosphotyrosyl protein phosphatase; conditions: cited from earlier work
# calcineurin = conditions: cited from earlier work
# diabetic animals = conditions: cited from earlier work
# [8] = tested on: cellular carbohydrate biosynthetic pathways; conditions: cited from earlier work
# [9] = tested on: muscles and liver; cardiac performance; conditions: rats; cited from earlier work
substance,measurement,setting,value
sodium orthovanadate,Percent Specific Release,"[1]; 5 mM, E:T 10, media 39",63%
same,Percent Specific Release,"[1]; 5 mM, E:T 25, media 4",29%
same,Percent Specific Release,"[1]; 5 mM, E:T 50, media 21",46%
same,Percent Specific Release,"[1]; 10 mM, E:T 10, media 39",62%
same,Percent Specific Release,"[1]; 10 mM, E:T 25, media 4",40%
same,Percent Specific Release,"[1]; 10 mM, E:T 50, media 21",49%
same,effect of removal of inhibitor on NCC activation (words),[1],slightly reduced levels of NCC cytotoxicity
same,effect of removal of inhibitor on NCC activation (words),[1]; listed as sodium vanadate,largely retained
same,enhancement of destruction of IM-9 target cells (fold),[1]; listed as Sodium vanadate,approximately six- to eightfold
same,enhancement of destruction of IM-9 target cells (fold),[1]; listed as sodium vanadate,as much as six- to eightfold
same,Percent Specific Release (stressed fish),[2]; Na3 VO4 5.0 mM,9.9%
same,Percent Specific Release (stressed fish),[2]; Na3 VO4 10.0 mM,13.1%
same,in vivo NCC cytotoxicity (words),[3]; listed as orthovanadate,significantly increased cytotoxicity 48 hours post-treatment
same,in vivo NCC cytotoxicity (words),[3]; listed as vanadate,large increases in cytotoxicity by 48 hours
same,reduction in mortality,"Edwardsiella ictaluri [4]; 0.05 mM pretreatment 48 hours, FIG. 11A",27%
same,reduced mortality,"Edwardsiella ictaluri [4]; 0.05 mM pretreatment, 13-14 days post infection, FIG. 11B",54%
same,mortality / resistance after pretreatment (words),"Edwardsiella ictaluri [4]; 0.05 mM, 48 hours prior to infection, listed as sodium orthovanadate",produced resistance in catfish against the Edwardsiella pathogen
same,survival at 28 days post-infection,Edwardsiella ictaluri [4]; experiment B,all treated catfish were still alive
same,% NCC in anterior kidney tissue,"[5]; 3 hours post-treatment, control 60",51%
same,Total cells/ml,"[5]; 3 hours, control 3.2",3.1 cells/ml × 10^0
same,Total cells/ml,"[5]; 24 hours, control 2.6",2.8 cells/ml × 10^0
same,% NCC in anterior kidney tissue,"[5]; 24 hours, control 55",60%
same,Total cells/ml,"[5]; 48 hours, control 2.1",3.5 cells/ml × 10^0
same,% NCC in anterior kidney tissue,"[5]; 48 hours, control 52",66%
same,Total cells/ml,"[5]; 72 hours, control 2.3",3.1 cells/ml × 10^0
same,% NCC in anterior kidney tissue,"[5]; 72 hours, control 70",72%
same,Total cells/ml,"[5]; 96 hours, control 3.6",1.6 cells/ml × 10^0
same,% NCC in anterior kidney tissue,"[5]; 96 hours, control 61",78%
same,effect on total number of cells and percentage NCC in anterior kidney tissue,[5]; in vivo,not due to fluctuations in the total number of cells nor in the percentage of NCC
same,mortality of infected catfish (words),Edwardsiella ictaluri [6],mortality was reduced
same,Na^+ /K^+ ATPase inhibition,Na^+ /K^+ ATPase,significantly inhibited
same,protein phosphatase activity,protein phosphatase,vanadate but not fluoride inhibited protein phosphatase activity
same,human prostate gland phosphotyrosyl protein phosphatase,[7],"fluoride, but not vanadate inhibited human prostate gland phosphotyrosyl protein phosphatase"
same,calcineurin-mediated dephosphorylation,calcineurin,"fluoride, but not vanadate inhibited"
same,blood glucose levels in diabetic animals,"diabetic animals; oral, 15 μM in drinking water",normalization of blood glucose levels in diabetic animals
same,time to reversal of effects after suspension of treatment,diabetic animals; rats,two
same,glucose oxidation,[8],stimulation of glucose oxidation
same,glycogen synthetase activity,[8],stimulation of glycogen synthetase activity
same,insulin activity,[8],prolongation of insulin activity
same,insulin binding,[8],augmentation of insulin binding
same,cardiac performance,[9],improved cardiac performance
same,glucose transport into muscles and liver,[9],stimulated glucose transport into muscles and liver
